We go through five molecules from ChEMBL document CHEMBL1151398, “New taxanes from Taxus brevifolia” (1982).

Experiment [1] concerns Astrocyte. The experiment is described as follows: Astrocyte reversal activity in astrocytes. The experiment is classed as functional. The settings on record: read-out: ED50 (the source's name).
The test system of experiment [2] is KB. The experiment is described as follows: Cytotoxicity against human KB cells. The experiment is classed as functional. Also noted: concentration or dose not given beside the values.

A value given as a limit tells only on which side of the number the result lay.

For `CC(=O)O[C@@]12CO[C@@H]1C[C@H](O)[C@@]1(C)C(=O)[C@H](O)C3=C(C)[C@@H](O)C[C@@](O)([C@@H](OC(=O)c4ccccc4)[C@H]21)C3(C)C`, the EC50 in experiment [1] is 1 µg/mL. In experiment [2], this molecule registered an Activity of 16%.

In the case of `CC(=O)O[C@H]1C(=O)[C@]2(C)[C@@H](OC(C)=O)C[C@H]3OC[C@@]3(OC(C)=O)[C@H]2[C@H](OC(=O)c2ccccc2)[C@]2(O)C[C@H](OC(=O)[C@H](OC(C)=O)[C@@H](NC(=O)c3ccccc3)c3ccccc3)C(C)=C1C2(C)C`, the EC50 in experiment [1] stood at 0.03 µg/mL. This molecule also had an Activity in experiment [2] of 16%.

As to `CC(=O)O[C@H]1C[C@H]2OC[C@@]2(OC(C)=O)[C@H]2[C@H](OC(=O)c3ccccc3)[C@]3(O)C[C@H](OC(=O)[C@H](OC(C)=O)[C@@H](NC(=O)c4ccccc4)c4ccccc4)C(C)=C([C@@H](O)C(=O)[C@]12C)C3(C)C`, in experiment [1], the EC50 was under 0.01 µg/mL. Moreover, in experiment [2], the Activity came to 16%.

For `C=C1[C@@H](O)C[C@H](OC(C)=O)[C@@]2(C)[C@@H](OC(C)=O)[C@H](OC(C)=O)C3=C(C)[C@@H](OC(C)=O)C[C@@H]([C@@H](OC(C)=O)[C@H]12)C3(C)C` [DECINNAMOYLTAXININE J], the EC50 in experiment [1] stood at 28 µg/mL. For the same molecule, in experiment [2], the Activity is 16%.

As for `CC(=O)O[C@H]1C(=O)[C@@]2(C)[C@H]([C@H](OC(=O)c3ccccc3)[C@]3(O)C[C@H](OC(=O)[C@H](O)[C@@H](NC(=O)c4ccccc4)c4ccccc4)C(C)=C1C3(C)C)[C@]1(OC(C)=O)CO[C@@H]1C[C@@H]2O` [PACLITAXEL], the EC50 in experiment [1] was under 0.01 µg/mL. The molecule further registered an Activity in experiment [2] of 31%.
